How the values were obtained:
Aβ1-40 peptide secretion = assay: Quantification of secreted Aβ1-40 by ELISA in SY5Y-APP695WT cells; assay type: cell-based; conditions: Homo sapiens; concentration inhibiting 50% of Aβ1-40 peptide secretion in SY5Y cells; 24 h treatment; mean ± SD of at least two experiments in triplicate
Protocol: (§1) Cell culture and treatment. The human neuroblastoma cell line […] was maintained in Dulbecco's modified Eagle medium (DMEM, high glucose, pyruvate-GIBCO by Life Technologies) supplemented with 10% foetal bovine serum, 2 mM L-glutamine, 1 mM non-essential amino acids and penicillin/streptomycin (GIBCO by Life Technologies) at 37° C. in a 5% CO2 humidified incubator. […] cells were maintained in 75 cm^2 culture flasks (Falcon) with supplemented DMEM medium until they reached 80% of confluence 24 h before treatment. For compounds treatment, a 10 mM stock solution was diluted in freshly supplemented DMEM medium to obtain the precise final concentration of drug. Bafilomycin A1 (BafA1), the vacuolar […] type H+ ATPase inhibitor, was purchased from Merck Millipore and was used at a final dilution of 100 nM. For drug treatment, cells were plated at a rate of 5·10^5 cells per well into 12-well plates (Falcon) and cultured with 1 mL supplemented DMEM cell medium for 24 h before drug exposure. The following day, cell medium was replaced with fresh medium containing drugs diluted at the indicated concentrations. Cells were treated for 24 h. At the end of treatments, the cell medium was collected and kept at -80° C. until use for dosage. Then, cells were rinsed once with PBS and extracted in 100 μL of Laemmli buffer (10 mM Tris, 20% glycerol and 2% Sodium dodecyl sulfate) using a cell-scraper. The cell lysate was further sonicated (30 pulses of 0.5 s, 60 Hz) for 5 min. Total protein concentration was determined using the Pierce BCA Protein Assay Kit (Thermo scientific) according to the manufacturer's instructions. Samples were stored at -80° C. until analysis. Quantification of secreted Aβ1-40/1-42 and sAPPα/sAPPβ. Conditioned media of […] collected at the end of treatments were centrifuged at 1000 g for 5 min to eliminate cells debris. Aβ1-40 and Aβ1-42 peptide concentrations in […] were determined using amyloid-beta 40 and 42 Human ELISA kits (Invitrogen) according to the manufacturer's instructions after 1:10 and 1:2 dilutions of supernatants in ELISA buffer, respectively. sAPPα and sAPPβ concentrations in ng/mL were determined using the sAPPα/sAPPβ kit (Meso Scale Diagnostics, MSD®) according to the manufacturer's instructions. Compounds of the invention (compounds 24-37, 41, 44 and 51-58) were evaluated for their ability to modulate APP processing on SY5Y human neuroblastoma cell line stably expressing the neuronal isoform of human wild-type APP695 (SYSY-APPwt). Aβ levels (Aβ1-40 and Aβ1-42) after treatment with reference and tested compounds were measured by ELISA (Table 2). […] APP carboxy-terminal fragments (αCTFs and AICD) were measured by Western blot and quantified. The effect of reference and tested compounds on αCTFs and AICD are expressed as the intensity of corresponding western-blot bands resulting from the secretase cleavages.

Aβ1-42 peptide secretion = assay: Quantification of secreted Aβ1-42 by ELISA in SY5Y-APP695WT cells; assay type: cell-based; conditions: Homo sapiens; concentration inhibiting 50% of Aβ1-42 peptide secretion in SY5Y cells; 24 h treatment; mean ± SD of at least two experiments in triplicate
Protocol: as §1

CTFα = assay: APP carboxy-terminal fragment αCTF by Western blot in SY5Y-APP695WT cells; assay type: cell-based, human; conditions: CTFα increase compared to chloroquine ([CTF]compound/[CTF]CQ) at 3 μM; mean of at least three experiments
Excerpt: (§2) Antibodies. Primary antibodies used in this study for western-blot analysis included a homemade rabbit antiserum against the last 17 amino acids of human APP protein sequence, named APP-Cter-C17 (1/5000 in TBS-M). Anti-β-actin (1/10 000 in TBS-M) was obtained from Sigma. Anti-LC3B (1/2000 in TBS-BSA) and anti-p62/SQSTM1 (1/2000 in TBS-M) antibodies were purchased from Cell Signaling Technology. Secondary antibodies (peroxidase-labeled goat anti-rabbit IgG, 1/5000 or peroxidase-labeled horse anti-mouse IgG, 1/50000 in TBS-T) were obtained from Vector Laboratories.
(§3) Cell culture and treatment. The human neuroblastoma cell line SY5Y-APP^695WT was maintained in Dulbecco's modified Eagle medium (DMEM, high glucose, pyruvate—GIBCO by Life Technologies) supplemented with 10% foetal bovine serum, 2 mM L-glutamine, 1 mM non-essential amino acids and penicillin/streptomycin (GIBCO by Life Technologies) at 37° C. in a 5% CO2 humidified incubator. SY5Y-APP^695WT cells were maintained in 75 cm^2 culture flasks (Falcon) with supplemented DMEM medium until they reached 80% of confluence 24 h before treatment.
(§4) For drug treatment, cells were plated at a rate of 5·10^5 cells per well into 12-well plates (Falcon) and cultured with 1 mL supplemented DMEM cell medium for 24 h before drug exposure. The following day, cell medium was replaced with fresh medium containing drugs diluted at the indicated concentrations. Cells were treated for 24 h. At the end of treatments, the cell medium was collected and kept at −80° C. until use for dosage. Then, cells were rinsed once with PBS and extracted in 100 μL of Laemmli buffer (10 mM Tris, 20% glycerol and 2% Sodium dodecyl sulfate) using a cell-scraper. The cell lysate was further sonicated (30 pulses of 0.5 s, 60 Hz) for 5 min. Total protein concentration was determined using the Pierce BCA Protein Assay Kit (Thermo scientific) according to the manufacturer's instructions. Samples were stored at −80° C. until analysis.
(§5) Western Blot Analysis. Cell protein lysates were prepared for western-blot analysis by diluting the sample with 1 volume of NuPAGE® lithium dodecyl sulfate (LDS) 2× sample buffer supplemented with 20% NuPAGE® sample reducing agents (Invitrogen). Samples were heat 10 min at 100° C. 10 μg of total proteins per well were loaded onto a precast 4-12% Criterion XT Bis-Tris polyacrylamide gel (Bio-Rad) and electrophoresis was achieved after applying a tension of 150 V during 90 min using a Criterion electrophoresis Cell with the NuPAGE® MOPS SDS running buffer (1×). Proteins were transferred to a nitrocellulose membrane of […] pore size (G&E Healthcare) using the Criterion blotting system and applying a tension of 100 V for 45 min. To resolve proteins of low molecular weights such as carboxy-terminal fragments of APP, 12% Criterion XT Bis-Tris polyacrylamide gels (Bio-Rad) were used and electrophoresis was performed during 70 min at 150 V in a NuPAGE® MES SDS running buffer (1×). Proteins were transferred to a nitrocellulose membrane of 0.2 μm pore size (G&E Healthcare) at 100 V for 40 min. Molecular weights calibration was achieved using molecular weight markers (Novex and Magic Marks, Life Technologies). Protein transfer and quality were determined by a reversible Ponceau Red coloration (0.2% Xylidine Ponceau Red and 3% Trichloroacetic acid). Membranes were then blocked in 25 mM Tris-HCl pH 8.0, 150 mM NaCl, 0.1% Tween-20 (v/v) (TBS-T) and 5% (w/v) of skimmed milk (TBS-M) or 5% (w/v) of bovine serum albumin (TBS-BSA) depending on the antibody during 1 h. Membrane was rinsed three-times 10 min in TBS-T before incubation with the primary antibody overnight at 4° C. Membrane was rinsed 3 times 10 min with TBS-T and then incubated with the secondary antibody for 45 min at room temperature (RT). […] Quantifications of protein expression levels were performed with ImageJ Software (NIH). […]

AICD = AICD by Western blot in SY5Y-APP695WT cells; assay type: cell-based, human; conditions: AICD increase compared to chloroquine ([AICD]compound/[AICD]CQ) at 3 μM; mean of at least three experiments
Excerpt: as §2, §3, §4, §5

SMILES	IC50 (Aβ1-40 peptide secretion) [µM]	IC50 (Aβ1-42 peptide secretion) [µM]	CTFα vs CQ (3 μM) (CTFα)	AICD vs CQ (3 μM) (AICD)
c1cn(-c2ccc(NCCCN3CCCCC3)c(OCCN3CCCCC3)c2)cc1CN1CCOCC1 [Compound 53, 4-[3-(Morpholin-4-ylmethyl)-1H-pyrrol-1-yl]-2-[2-(piperidin-1-yl)ethoxy]-N-[3-(piperidin-1-yl)propyl]aniline]	3.3 ± 0.2	3.5 ± 1.1	1.7	3.3
CN(C)Cc1ccccc1-c1ccc(NCCN2CCCCC2)c(OCCCN2CCCCC2)c1 [Compound 34, 2′-((Dimethylamino)methyl)-N-(2-(piperidin-1-yl)ethyl)-3-(3-(piperidin-1-yl)propoxy)-[1,1′-biphenyl]-4-amine]	2 ± 0.2	1.8 ± 0.7	4.5	3.4
c1cc(CN2CCCCC2)cc(-c2ccc(NCCCN3CCCCC3)c(OCCN3CCCCC3)c2)c1 [Compound 26, 2-[2-(1-piperidyl)ethoxy]-4-[3-(1-piperidylmethyl)phenyl]-N-[3-(1-piperidyl)propyl]aniline]	4.3 ± 0.7	4.8 ± 0.6	3.3	2.6
c1ccc(-c2ccc(NCCCN3CCCCC3)c(OCCN3CCCCC3)c2)c(CN2CCCCC2)c1 [Compound 27, 2-[2-(Piperidin-1-yl)ethoxy]-N-[3-(piperidin-1-yl)propyl]-4-[2-(piperidin-1-ylmethyl)phenyl]aniline]	2.6 ± 0.1	4.1 ± 1.3	4.3	2.7
CN(C)Cc1ccccc1-c1ccc(NCCCN2CCCCC2)c(OCCCN2CCCCC2)c1 [Compound 32, 2′-((Dimethylamino)methyl)-3-(3-(piperidin-1-yl)propoxy)-N-(3-(piperidin-1-yl)propyl)-[1,1′-biphenyl]-4-amine]	2.1 ± 0.3	2 ± 0.1	4.5	5.1
CN(C)Cc1ccccc1-c1ccc(NCCCCN2CCCCC2)c(OCCN2CCCCC2)c1 [Compound 36, 2′-((Dimethylamino)methyl)-N-(4-(piperidin-1-yl)butyl)-3-(2-(piperidin-1-yl)ethoxy)-[1,1′-biphenyl]-4-amine]	1.7 ± 0.3	1.6 ± 0.8	4.2	3.0
CN1CCN(Cc2ccn(-c3ccc(NCCCN4CCCCC4)c(OCCN4CCCCC4)c3)c2)CC1 [Compound 54, 4-(3-[(4-Methylpiperazin-1-yl)methyl]-1H-pyrrol-1-yl)-2-[2-(piperidin-1-yl)ethoxy]-N-[3(piperidin-1-yl)propyl]aniline]	8.3 ± 4	12.1 ± 7.8	–	–
CN(C)CCCNc1ccc(-n2ccc(CN3CCCCC3)c2)cc1OCCN1CCCCC1 [Compound 56, N-[3-(Dimethylamino)propyl]-2-[2-(piperidin-1-yl)ethoxy]-4-[3-(piperidin-1-ylmethyl)-1H-pyrrol-1-yl]aniline]	5.3 ± 0.1	6.3 ± 0.7	2.5	2.7
CN(C)Cc1ccccc1-c1ccc(NCCCN2CCCCC2)cc1 [Compound 44, 2′-((Dimethylamino)methyl)-N-(3-(piperidin-1-yl)propyl)-[1,1′-biphenyl]-4-amine]	3.9 ± 1	3.6 ± 0.1	0.9	0.8
CN(C)CCCNc1ccc(-n2ccc(CN3CCN(C)CC3)c2)cc1OCCN1CCCCC1 [Compound 58, N-[3-(dimethylamino)propyl]-4-(3-[(4-methylpiperazin-1-yl)methyl]-1H-pyrrol-1-yl}-2-[2-(piperidin-1-yl)ethoxy]aniline]	5.1 ± 1.3	5.4 ± 0.4	3.0	1.8
c1ccc(-c2ccc(NCCCN3CCCCC3)c(OCCN3CCCCC3)c2)c(CN2CCOCC2)c1 [Compound 28, 4-[2-(Morpholin-4-ylmethyl)phenyl]-2-[2-(piperidin-1-yl)ethoxy]-N-[3-(piperidin-1-yl)propyl]aniline]	2.8 ± 1.2	4.2 ± 1.5	3.1	1.7
CN(C)CCCNc1ccc(-n2ccc(CN(C)C)c2)cc1OCCN1CCCCC1 [Compound 55, 4-(3-[(dimethylamino)methyl]-1H-pyrrol-1-yl)-N-[3-(dimethylamino)propyl]-2-[2-(piperidin-1-yl)ethoxy]aniline]	6.1 ± 0.7	8 ± 1.6	1.2	0.8
CN(C)CCCNc1ccc(-n2ccc(CN3CCOCC3)c2)cc1OCCN1CCCCC1 [Compound 57, N-[3-(Dimethylamino)propyl]-4-[3-(morpholine-4-ylmethyl)-1H-pyrrol-1-yl]-2-[2-(piperidin-1-yl)ethoxy]aniline]	2.8 ± 1.1	3.4 ± 2	2.2	2.6
CCN(CC)CCCC(C)Nc1ccnc2cc(Cl)ccc12 (stereo not shown) [CQ, chloroquine, reference compound]	–	–	1	1

From patent publication US20210230131A1, “POLYAMINO BIARYL COMPOUNDS AND THEIR USE” (INSERM (INSTITUT NATIONAL DE LA SANTÉ ET DE LA RECHERCHE …, priority 2018, published 2021)
